Results reported in ChEMBL document CHEMBL1201862, “PubChem BioAssay data set” (2004).
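Each compound was tested at five concentrations against cells in 96-well plates for 48 hours. At the GI50, growth is halved.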 The source made the active and inactive calls. Rule as the data show it: active = GI50 up to about 1.1 µM and inactive = higher.

How the values were obtained:
Experiment in all cases: growth of human tumour cells (NCI), 48 h
COLO 205 = system: COLO 205
HCT-116 = system: HCT-116
HOP-62 = system: HOP-62
IGROV-1 = system: IGROV-1
M14 = system: M14
MOLT-4 = system: MOLT-4
NCI-H226 = system: NCI-H226
NCI-H23 = system: NCI-H23
OVCAR-4 = system: OVCAR-4
OVCAR-8 = system: OVCAR-8
RPMI-8226 = system: RPMI-8226
SF-295 = system: SF-295
SNB-19 = system: SNB-19
SNB-75 = system: SNB-75
SR = system: SR
SW-620 = system: SW-620
EKVX = system: EKVX
SK-OV-3 = system: SK-OV-3

SMILES | GI50 (COLO 205) | GI50 (HCT-116) | GI50 (HOP-62) | GI50 (IGROV-1) | GI50 (M14) | GI50 (MOLT-4) | GI50 (NCI-H226) | GI50 (NCI-H23) | GI50 (OVCAR-4) | GI50 (OVCAR-8) | GI50 (RPMI-8226) | GI50 (SF-295) | GI50 (SNB-19) | GI50 (SNB-75) | GI50 (SR) | GI50 (SW-620) | GI50 (EKVX) | GI50 (SK-OV-3)
O=[N+]([O-])/C=C/c1ccc(Cl)cc1Cl | 21.2 µM (inactive) | 3.44 µM (inactive) | 14.2 µM (inactive) | 14.8 µM (inactive) | 11.7 µM (inactive) | 15.8 µM (inactive) | 17.6 µM (inactive) | 19.2 µM (inactive) | 19.8 µM (inactive) | 25.4 µM (inactive) | 2.44 µM (inactive) | 17 µM (inactive) | 17.8 µM (inactive) | 20.4 µM (inactive) | 11.4 µM (inactive) | 12.1 µM (inactive) | – | –
COC(=O)/C=C1/CCC2[C@@H](C(=O)CC3[C@]2(C)CCC[C@@]3(C)C(=O)OC)C1C (some centres not stated) | 5.57 µM (inactive) | 5.79 µM (inactive) | 21.9 µM (inactive) | 20.2 µM (inactive) | 13.2 µM (inactive) | 4.04 µM (inactive) | 21.2 µM (inactive) | 11.2 µM (inactive) | 8.73 µM (inactive) | 12.3 µM (inactive) | 2.98 µM (inactive) | 17.7 µM (inactive) | 17.4 µM (inactive) | 8.99 µM (inactive) | – | 5.86 µM (inactive) | 24 µM (inactive) | 30.9 µM (inactive)
O=C(N/C(=C\c1cccc([N+](=O)[O-])c1)c1nc2cc([N+](=O)[O-])ccc2[nH]1)c1ccccc1 | 35.6 µM (inactive) | – | – | 21.4 µM (inactive) | 38.9 µM (inactive) | 12.2 µM (inactive) | – | 27.3 µM (inactive) | 19.5 µM (inactive) | 31 µM (inactive) | – | 40.4 µM (inactive) | 45.4 µM (inactive) | – | 17.1 µM (inactive) | 35.1 µM (inactive) | 51.9 µM (inactive) | 71.3 µM (inactive)
COc1ccc2nc3ccccc3c(NCCN(CCCl)CCCl)c2c1 | – | 0.272 µM (active) | 0.555 µM (active) | 1.3 µM (inactive) | 1.03 µM (active) | 0.0592 µM (active) | 1 µM (active) | 0.156 µM (active) | 1.08 µM (active) | 0.649 µM (active) | – | 0.614 µM (active) | 0.656 µM (active) | 1.25 µM (inactive) | 0.0321 µM (active) | 0.238 µM (active) | 2.35 µM (inactive) | 1.48 µM (inactive)
COc1ccc(-c2cc(=O)c3c(O)cc(O)cc3o2)c(OC)c1OC | 57.7 µM (inactive) | – | > 100 µM (inactive) | > 100 µM (inactive) | > 100 µM (inactive) | – | > 100 µM (inactive) | > 100 µM (inactive) | 62.8 µM (inactive) | – | 17.6 µM (inactive) | 87.5 µM (inactive) | > 100 µM (inactive) | 38.3 µM (inactive) | – | 71.1 µM (inactive) | > 100 µM (inactive) | > 100 µM (inactive)
CCCc1nn(C)c(CCC(=O)N(Cc2ccccc2)Cc2ccccc2)c1CC | > 100 µM (inactive) | > 100 µM (inactive) | > 100 µM (inactive) | > 100 µM (inactive) | > 100 µM (inactive) | – | > 100 µM (inactive) | > 100 µM (inactive) | > 100 µM (inactive) | > 100 µM (inactive) | > 100 µM (inactive) | > 100 µM (inactive) | > 100 µM (inactive) | 47 µM (inactive) | – | > 100 µM (inactive) | > 100 µM (inactive) | > 100 µM (inactive)
CCC12CCCN(Cc3ccccc3)C1c1c(n(C)c3ccccc13)C(C(=O)OC)C2 (configuration not stated) | 107 µM (inactive) | 51.6 µM (inactive) | 129 µM (inactive) | 146 µM (inactive) | – | 74.3 µM (inactive) | 66.2 µM (inactive) | 77.1 µM (inactive) | – | 169 µM (inactive) | 82.4 µM (inactive) | 75.7 µM (inactive) | 72.9 µM (inactive) | – | 72.6 µM (inactive) | 115 µM (inactive) | > 239 µM (inactive) | 236 µM (inactive)
Cc1ccccc1C(C#N)/C(=N/NC(=O)C(=O)NN)C(=O)Nc1cccc(C(F)(F)F)c1 (configuration not stated) | > 100 µM (inactive) | > 100 µM (inactive) | > 100 µM (inactive) | > 100 µM (inactive) | > 100 µM (inactive) | > 100 µM (inactive) | > 100 µM (inactive) | > 100 µM (inactive) | > 100 µM (inactive) | > 100 µM (inactive) | > 100 µM (inactive) | > 100 µM (inactive) | > 100 µM (inactive) | 49.8 µM (inactive) | > 100 µM (inactive) | > 100 µM (inactive) | > 100 µM (inactive) | –
CCOc1ccc(/C=C\c2cc(OC)c(OC)c(OC)c2)cc1 | 0.0127 µM (active) | 0.00033 µM (active) | 0.000964 µM (active) | 0.2 µM (active) | 0.01 µM (active) | 0.000634 µM (active) | 0.00218 µM (active) | 0.027 µM (active) | 0.114 µM (active) | 0.000456 µM (active) | 0.000443 µM (active) | < 0.0001 µM (active) | 0.000165 µM (active) | < 0.0001 µM (active) | 0.000931 µM (active) | < 0.0001 µM (active) | 0.735 µM (active) | –
c1ccc(-c2nnc3nn4c(-c5ccccc5)cnnc4c3c2-c2ccccc2)cc1 | – | 63.4 µM (inactive) | – | – | > 100 µM (inactive) | > 100 µM (inactive) | > 100 µM (inactive) | > 100 µM (inactive) | 12.9 µM (inactive) | 76.4 µM (inactive) | > 100 µM (inactive) | 74 µM (inactive) | 25.2 µM (inactive) | 34.4 µM (inactive) | > 100 µM (inactive) | > 100 µM (inactive) | 19.7 µM (inactive) | –
O=C1NC(c2ccccc2)(c2ccccc2)C(=O)N1CCCCCCN1C(=O)NC(c2ccccc2)(c2ccccc2)C1=O | > 100 µM (inactive) | – | 24.8 µM (inactive) | 74 µM (inactive) | 53.8 µM (inactive) | > 100 µM (inactive) | > 100 µM (inactive) | 18.2 µM (inactive) | 4.52 µM (inactive) | 22.3 µM (inactive) | > 100 µM (inactive) | 13.2 µM (inactive) | 12.2 µM (inactive) | 4.79 µM (inactive) | – | 69.3 µM (inactive) | 39.4 µM (inactive) | 26.9 µM (inactive)
CC(=O)OC1COC(n2c(=S)n(-c3ccccc3)c(=O)c3ccccc32)C(OC(C)=O)C1OC(C)=O (configuration not stated) | 99.1 µM (inactive) | 47.9 µM (inactive) | > 100 µM (inactive) | 67.3 µM (inactive) | 21.3 µM (inactive) | 21 µM (inactive) | > 100 µM (inactive) | 70 µM (inactive) | 26.8 µM (inactive) | 72.8 µM (inactive) | 22.5 µM (inactive) | 19.9 µM (inactive) | > 100 µM (inactive) | > 100 µM (inactive) | – | 44.6 µM (inactive) | > 100 µM (inactive) | > 100 µM (inactive)
CC[C@H](C)C(=O)O[C@H]1C[C@@H](C)C=C2C=C[C@H](C)[C@H](CC[C@@H]3C[C@@H](O)CC(=O)O3)[C@H]21 [LOVASTATIN] | 5.73 µM (inactive) | – | 13.1 µM (inactive) | 5.96 µM (inactive) | 12.3 µM (inactive) | 26.8 µM (inactive) | 11.9 µM (inactive) | 1.02 µM (active) | > 30 µM (inactive) | 7.83 µM (inactive) | > 30 µM (inactive) | – | – | – | 2.11 µM (inactive) | 7.36 µM (inactive) | > 30 µM (inactive) | 11.8 µM (inactive)
